According to ChEMBL document CHEMBL3593163, “Synthesis and Characterization of 5-Hydroxy-2-(2-phenylethyl)chromone (5-HPEC) and Its Analogues as Non-nitrogenous 5-HT2B Ligands” (J Nat Prod, 2015):

Assays:
[1] = target: T1, 5-hydroxytryptamine receptor 2C (Homo sapiens) (UniProt P28335); assay: Displacement of [3H]mesulergine from human 5HT2C receptor expressed in Flp-IN HEK cell membranes at 10 uM; settings: HEK293
T1 sequence (whole entry): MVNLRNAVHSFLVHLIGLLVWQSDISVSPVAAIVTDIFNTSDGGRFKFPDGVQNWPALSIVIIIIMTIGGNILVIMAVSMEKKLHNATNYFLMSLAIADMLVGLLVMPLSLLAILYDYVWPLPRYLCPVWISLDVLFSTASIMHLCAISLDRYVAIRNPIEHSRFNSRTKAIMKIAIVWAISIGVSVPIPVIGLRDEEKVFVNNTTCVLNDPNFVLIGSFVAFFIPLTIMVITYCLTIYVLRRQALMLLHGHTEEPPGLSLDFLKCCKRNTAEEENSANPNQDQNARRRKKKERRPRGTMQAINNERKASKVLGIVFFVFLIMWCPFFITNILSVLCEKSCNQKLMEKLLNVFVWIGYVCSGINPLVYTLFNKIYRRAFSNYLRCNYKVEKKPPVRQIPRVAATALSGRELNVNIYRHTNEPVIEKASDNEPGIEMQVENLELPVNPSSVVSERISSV

[2] = target: 5-hydroxytryptamine receptor 2B (Homo sapiens) (UniProt P41595); assay: Displacement of [3H]LSD from human 5HT2B receptor expressed in stable HEK cells membranes at 10 uM; type: cell membranes; settings: HEK293
Sequence of 5-hydroxytryptamine receptor 2B (Homo sapiens) (P41595 whole entry): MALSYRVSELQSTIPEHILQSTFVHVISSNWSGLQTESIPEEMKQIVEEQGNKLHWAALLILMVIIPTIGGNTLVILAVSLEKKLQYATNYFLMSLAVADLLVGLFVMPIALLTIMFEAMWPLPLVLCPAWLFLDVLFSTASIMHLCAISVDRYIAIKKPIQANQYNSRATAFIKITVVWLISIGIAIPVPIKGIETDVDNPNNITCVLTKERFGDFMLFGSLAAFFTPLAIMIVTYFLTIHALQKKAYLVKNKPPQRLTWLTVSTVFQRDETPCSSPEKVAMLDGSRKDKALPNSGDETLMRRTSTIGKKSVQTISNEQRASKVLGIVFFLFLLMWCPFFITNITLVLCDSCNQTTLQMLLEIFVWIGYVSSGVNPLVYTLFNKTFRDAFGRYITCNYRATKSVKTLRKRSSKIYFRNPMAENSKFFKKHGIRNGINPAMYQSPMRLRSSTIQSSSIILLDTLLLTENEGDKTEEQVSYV

[3] = target: 5-hydroxytryptamine receptor 2A (Homo sapiens) (UniProt P28223); assay: Displacement of [3H]ketanserin from human 5HT2A receptor expressed in HEKT cells membranes at 10 uM; type: cell membranes
Sequence of 5-hydroxytryptamine receptor 2A (Homo sapiens) (P28223 whole entry): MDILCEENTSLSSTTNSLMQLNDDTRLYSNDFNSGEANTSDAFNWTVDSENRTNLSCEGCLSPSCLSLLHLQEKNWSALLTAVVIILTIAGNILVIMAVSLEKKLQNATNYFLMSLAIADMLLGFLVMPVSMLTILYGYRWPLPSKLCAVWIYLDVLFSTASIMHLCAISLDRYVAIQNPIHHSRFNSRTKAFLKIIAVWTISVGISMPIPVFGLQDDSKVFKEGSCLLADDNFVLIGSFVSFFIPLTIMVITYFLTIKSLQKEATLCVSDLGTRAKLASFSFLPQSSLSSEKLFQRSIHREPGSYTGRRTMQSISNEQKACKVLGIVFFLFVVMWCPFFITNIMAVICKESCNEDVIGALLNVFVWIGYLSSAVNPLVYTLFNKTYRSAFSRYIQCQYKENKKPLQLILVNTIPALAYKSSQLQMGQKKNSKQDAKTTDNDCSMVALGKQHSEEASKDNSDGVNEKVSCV

[4] = target: 5-hydroxytryptamine receptor 2B (Homo sapiens) (UniProt P41595); assay: Agonist activity at human 5HT2B receptor expressed in Flp-IN HEK cells at 10 um by calcium mobilization assay relative to 5-HT; type: functional, cell-based; settings: HEK293
[5] = target: 5-hydroxytryptamine receptor 2B (Homo sapiens) (UniProt P41595); assay: Antagonist activity against human 5HT2B receptor expressed in Flp-IN HEK cells assessed as inhibition of 5-HT-induced response at 10 uM by calcium mobilization assay; type: functional, cell-based; settings: HEK293
[6] = target: 5-hydroxytryptamine receptor 2B (Homo sapiens) (UniProt P41595); assay: Potency index, ratio of pKi for 5-HPEC to pKi for test compound against human 5HT2B receptor expressed in stable HEK cells membranes; type: cell-based; settings: HEK293

Structure (SMILES)	inhibition [1]	inhibition [2]	inhibition [3]	Efficacy [4]	inhibition [5]	Ratio [6]
O=c1cc(CCc2ccccc2O)oc2cc(O)ccc12	44%	16.6%	47.9%	–	–	–
O=c1cc(CCc2ccccc2)oc2cc(O)ccc12	33.7%	34.2%	35.5%	–	–	–
O=c1cc(CCc2cccc(O)c2)oc2cc(O)ccc12	0%	25.3%	23.2%	–	–	–
O=c1cc(CCc2ccc(O)cc2)oc2cc(O)ccc12	53.1%	40.8%	33.3%	–	–	–

Now from value to molecule:

inhibition [1]	inhibition [2]	inhibition [3]	Efficacy [4]	inhibition [5]	Ratio [6]	Structure (SMILES)
30.4%	76.3%	39%	–	–	–	O=c1cc(CCc2cccc(O)c2)oc2cccc(O)c12
24.2%	68.8%	12.4%	–	–	–	O=c1cc(CCc2ccco2)oc2cccc(O)c12
42.1%	77.7%	3.2%	–	–	–	O=c1cc(COCc2ccccc2)oc2cccc(O)c12
23.8%	12.8%	24.3%	–	–	–	O=c1cc(CCc2ccccc2O)oc2cccc(O)c12
–	–	–	0.23%	20.5%	10	O=c1cc(CCCc2ccccc2)oc2cccc(O)c12
7%	–	–	–	–	–	O=c1cc(COc2ccccc2)oc2cccc(O)c12
